In ChEMBL document CHEMBL4052627, “An overview of azoles targeting sterol 14α-demethylase for antileishmanial therapy” (Eur J Med Chem, 2017):
Values after ≈ are worked out from the molar mass of the structure shown.

Key:
Leishmania major [1] = assay: Antileishmanial activity against Leishmania major MHOM/SA/85/JISH118 promastigote forms after 44 hrs by Alamar Blue assay; assay type: functional; conditions: MHOM/SA/85/JISH118, 44 h
Leishmania major [2] = assay: Antileishmanial activity against Leishmania major MHOM/SA/85/JISH118 promastigote forms after 48 hrs by flow cytometric analysis; assay type: functional; conditions: MHOM/SA/85/JISH118, 48 h
Leishmania major [3] = assay: Antileishmanial activity against Leishmania major MHOM/SA/85/JISH118 axenic amastigote forms after 44 to 46 hrs by Alamar Blue assay; assay type: functional
Leishmania tropica [4] = assay: Antileishmanial activity against Leishmania tropica amastigote forms infected in human monocyte-derived macrophage assessed as reduction in parasite infection at 2 ug/ml relative to control; assay type: functional; parameters: scale not given: the % may be the effect or the level left
Leishmania donovani [5] = assay: Antileishmanial activity against Leishmania donovani MHOM/IN/80/Dd8 amastigote forms infected in mouse J774A.1 cells assessed as reduction in parasite infection after 72 hrs by luciferase reporter gene assay; assay type: functional, cell-based; conditions: MHOM/IN/80/Dd8, J774.A1, 72 h
Leishmania donovani [6] = assay: Antileishmanial activity against Leishmania donovani MHOM/IN/80/Dd8 amastigote forms infected in golden hamster assessed as inhibition in parasite infection in spleen at 50 mg/kg, ip administered for 5 days measured at day 7 post treatment by giemsa-staining based assay relative to control; assay type: functional; conditions: MHOM/IN/80/Dd8, ip
[7] = Selectivity index, ratio of CC50 for mouse J774A.1 cells to IC50 for Leishmania donovani MHOM/IN/80/Dd8 amastigote forms infected in mouse J774A.1 cells; assay type: toxicity, cell-based; conditions: read-out: Ratio CC50/IC50
Leishmania mexicana [8] = assay: Antileishmanial activity against Leishmania mexicana MHOM/MX/95/NAN1 axenic amastigote forms after 96 hrs by uptiblue-based spectrofluorimetric analysis; assay type: functional; conditions: MHOM/MX/95/NAN1, 96 h
Leishmania mexicana [9] = assay: Antileishmanial activity against Leishmania mexicana MHOM/MX/95/NAN1 amastigote forms infected in Balb/c mouse peritoneal macrophages after 48 hrs by May-Grunwald-Giemsa staining-based assay; assay type: functional; conditions: MHOM/MX/95/NAN1, 48 h
Leishmania major [10] = assay: Antileishmanial activity against Leishmania major MHOM/SEN/96/NAN2 stationary phase promastigote forms infected in BALB/c mouse assessed as reduction in parasite burden in spleen at 10 mg/kg, ip qd administered for 5 consecutive days measured after 50 days by May-Grunwald-Giemsa staining-based method relative to control; assay type: functional; parameters: scale not given: the % may be the effect or the level left
Leishmania major [11] = assay: Antileishmanial activity against Leishmania major MHOM/SEN/96/NAN2 stationary phase promastigote forms infected in BALB/c mouse assessed as reduction in parasite burden in liver at 10 mg/kg, ip qd administered for 5 consecutive days measured after 50 days by May-Grunwald-Giemsa staining-based method relative to control; assay type: functional; parameters: scale not given: the % may be the effect or the level left
Leishmania major [12] = assay: Antileishmanial activity against Leishmania major MHOM/SEN/96/NAN2 stationary phase promastigote forms infected in BALB/c mouse assessed as reduction in parasite burden in popliteal node at 10 mg/kg, ip qd administered for 5 consecutive days measured after 50 days by May-Grunwald-Giemsa staining-based method relative to control; assay type: functional; parameters: scale not given: the % may be the effect or the level left
[13] = Cytotoxicity against mouse J774A.1 cells assessed as reduction in cell viability after 2 mins by trypan blue dye-light microscopic analysis; assay type: cell-based, J774.A1
Leishmania major [14] = assay: Antileishmanial activity against Leishmania major MRHO/IR/75/ER amastigote forms infected in mouse J774A.1 cells after 60 hrs by giemsa-staining based light microscopic analysis; assay type: functional, cell-based; conditions: J774.A1, 60 h
Leishmania major [15] = assay: Antileishmanial activity against Leishmania major MRHO/IR/75/ER promastigote forms after 72 hrs by MTT assay; assay type: functional
Leishmania braziliensis [16] = assay: Antileishmanial activity against Leishmania braziliensis MHOM/BR/75/M2903 promastigotes forms in presence of terbinafine by trypan blue-staining based light microscopy; assay type: functional
Leishmania chagasi [17] = assay: Antileishmanial activity against Leishmania infantum chagasi MHOM/BR/1972/LD promastigote forms infected in golden hamster after 48 hrs by Alamar Blue assay; assay type: functional
[18] = Cytotoxicity against mouse NCTC-929 cells assessed as reduction in cell viability after 48 hrs by Alamar Blue assay; assay type: cell-based; conditions: NCTC-929, 48 h
Leishmania chagasi [19] = assay: Antileishmanial activity against Leishmania infantum chagasi MHOM/BR/1972/LD amastigote forms infected in BALB/c mouse macrophage after 120 hrs by giemsa-staining based light microscopic analysis; assay type: functional
Leishmania donovani [20] = assay: Leishmanicidal activity against Leishmania donovani 1S MHOM/SD/00/1S-2D promastigote forms after 18 hrs by indirect microscopic analysis; assay type: functional
Leishmania amazonensis [21] = assay: Leishmanicidal activity against Leishmania amazonensis JOSEPHA promastigote forms after 18 hrs by indirect microscopic analysis; assay type: functional
Leishmania major [22] = assay: Leishmanicidal activity against Leishmania major KK promastigote forms after 18 hrs by indirect microscopic analysis; assay type: functional
Leishmania mexicana [23] = assay: Leishmanicidal activity against Leishmania mexicana 68 promastigote forms after 18 hrs by indirect microscopic analysis; assay type: functional; conditions: Leishmania mexicana, 68, 18 h
Leishmania mexicana [24] = assay: Leishmanicidal activity against Leishmania mexicana 390 promastigote forms after 18 hrs by indirect microscopic analysis; assay type: functional; conditions: Leishmania mexicana, 390, 18 h
Leishmania panamensis [25] = assay: Leishmanicidal activity against Leishmania panamensis LS94 promastigote forms after 18 hrs by indirect microscopic analysis; assay type: functional; conditions: LS94, 18 h
Leishmania panamensis [26] = assay: Leishmanicidal activity against Leishmania panamensis L334 promastigotes forms after 18 hrs by indirect microscopic analysis; assay type: functional; conditions: L334, 18 h
Leishmania amazonensis [27] = assay: Antileishmanial activity against Leishmania amazonensis LV78 promastigotes forms after 8 days; assay type: functional; conditions: LV78, 192 h
Leishmania major [28] = assay: Antileishmanial activity against Leishmania major MHOM/SN/74/Seidman promastigote forms after 8 days; assay type: functional; conditions: 192 h
Leishmania donovani [29] = assay: Antileishmanial activity against Leishmania donovani […] promastigote forms after 8 days; assay type: functional; conditions: 192 h
Leishmania major [30] = assay: Antileishmanial activity against Leishmania major infected in human assessed as healing of lesions at 200 mg/day, po administered for 6 weeks (reference value: 34%); assay type: functional
Leishmania braziliensis [31] = assay: Antileishmanial activity against Leishmania (Viannia) braziliensis infected in human assessed as cure rate at 5 to 8 mg/kg/day, po for 4 weeks; assay type: functional
Leishmania major [32] = assay: Antileishmanial activity against wild type Leishmania major LV39 Rho/SU/59/P promastigote forms after 48 hrs; assay type: functional
Leishmania major [33] = assay: Antileishmanial activity against Leishmania major LV39 Rho/SU/59/P promastigote forms harboring C14DM null mutant after 48 hrs; assay type: functional
Leishmania tropica [34] = assay: Antileishmanial activity against Leishmania tropica amastigote forms infected in human monocyte-derived macrophage assessed as reduction in parasite infection at 15 ug/ml relative to control; assay type: functional; parameters: scale not given: the % may be the effect or the level left
Leishmania mexicana [35] = assay: Antileishmanial activity against Leishmania mexicana Walter Reed 227 promastigote forms assessed as reduction in promastigotes sterol biosynthesis at 10 nM after 24 hrs in presence of [2-14C]mevalonate by liquid scintillation spectrometry analysis relative to control; assay type: functional; parameters: scale not given: the % may be the effect or the level left
Leishmania amazonensis [36] = assay: Antileishmanial activity against Leishmania amazonensis LV78 axenic amastigote forms after 8 days; assay type: functional; conditions: LV78, 192 h

## Cc1ccc(OCCCCn2ccnc2)c(Cl)c1
Leishmania major [1]
  EC50: 0.21 µM
Leishmania major [2]
  EC50: 0.34 µM
Leishmania major [3]
  EC50: 11.7 µM

## Clc1ccc([C@@]2(Cn3ccnc3)OC[C@H](COc3ccc(N4CCNCC4)cc3)O2)c(Cl)c1
Leishmania tropica [4]
  Activity: 85%

## Clc1cccc(CO/N=C2/c3cccc(Cl)c3CCC2Cn2ccnc2)c1 (stereo unspecified)
Leishmania donovani [5]
  IC50: 2.32 µM
Leishmania donovani [6]
  inhibition in vivo at 50 mg/kg: 70%
[7]
  selectivity ratio: 25.6

## CCn1cc(C(c2ccc(Cl)cc2Cl)n2ccnc2)c2cc(Br)ccc21 (stereo unspecified)
Leishmania mexicana [8]
  IC50: 4.4 µM
Leishmania mexicana [9]
  IC50: < 1 µM
Leishmania major [10]
  Activity: 98.9%
Leishmania major [11]
  Activity: 79%
Leishmania major [12]
  Activity: 49.9%

## O/N=C1/c2ccccc2OC(c2ccc(Cl)cc2)C1n1ccnc1 (stereo unspecified)
[13]
  CC50 at 2 min: 355 µM
Leishmania major [14]
  IC50: 0.6 µM

## O/N=C1/c2ccccc2OC(c2cccc(Cl)c2)C1n1ccnc1 (stereo unspecified)
Leishmania major [15]
  IC50: 26.2 µM

## O[C@](Cn1cncn1)(Cn1cnc(/C=C/c2ccc(OCC(F)(F)C(F)F)cc2)n1)c1ccc(F)cc1F
Leishmania braziliensis [16]
  MIC: 0.03 µM

## c1ccc(-c2ccc(C(c3ccccc3)n3ccnc3)cc2)cc1 (stereo unspecified) [BIFONAZOLE]
Leishmania chagasi [17]
  IC50: 8.97 µM
[18]
  IC50: 39.2 to 42.7 µM

## Clc1ccccc1C(c1ccccc1)(c1ccccc1)n1ccnc1 [CLOTRIMAZOLE]
Leishmania chagasi [17]
  IC50: 2.81 µM
[18]
  IC50: 39.2 to 42.7 µM

## Clc1ccc(COC(Cn2ccnc2)c2ccc(Cl)cc2Cl)cc1 (stereo unspecified) [ECONAZOLE]
Leishmania chagasi [17]
  IC50: 5.36 µM
Leishmania chagasi [19]
  IC50: 11 µM
[18]
  IC50: 39.2 to 42.7 µM

## OC(Cn1cncn1)(Cn1cncn1)c1ccc(F)cc1F [FLUCONAZOLE]
Leishmania donovani [20]
  MIC: 104 µM (≈ 32 µg/mL)
Leishmania amazonensis [21]
  MIC: 104 µM (≈ 32 µg/mL)
Leishmania major [22]
  MIC: 104 µM (≈ 32 µg/mL)
Leishmania mexicana [23]
  MIC: 104 µM (≈ 32 µg/mL)
Leishmania mexicana [24]
  MIC: 104 µM (≈ 32 µg/mL)
Leishmania panamensis [25]
  MIC: 104 µM (≈ 32 µg/mL)
Leishmania panamensis [26]
  MIC: 104 µM (≈ 32 µg/mL)
Leishmania amazonensis [27]
  IC50: > 163 µM
Leishmania major [28]
  IC50: > 163 µM
Leishmania donovani [29]
  IC50: > 163 µM
Leishmania major [30]
  Activity: 79%
Leishmania braziliensis [31]
  Activity: 75 - 100%

## CCC(C)n1ncn(-c2ccc(N3CCN(c4ccc(OCC5COC(Cn6cncn6)(c6ccc(Cl)cc6Cl)O5)cc4)CC3)cc2)c1=O (stereo unspecified) [ITRACONAZOLE]
Leishmania major [32]
  IC50: 0.4 µM
Leishmania major [33]
  IC50: 2 µM

## CC(=O)N1CCN(c2ccc(OCC3COC(Cn4ccnc4)(c4ccc(Cl)cc4Cl)O3)cc2)CC1 (stereo unspecified) [KETOCONAZOLE]
Leishmania tropica [34]
  Activity: 85%
Leishmania mexicana [35]
  Activity: 50%
Leishmania braziliensis [16]
  MIC: 0.03 µM
Leishmania amazonensis [27]
  IC50: 0.55 to 3.54 µM
Leishmania major [28]
  IC50: 0.55 to 3.54 µM
Leishmania donovani [29]
  IC50: 0.55 to 3.54 µM
Leishmania amazonensis [36]
  IC50: 3.14 µM
Leishmania major [14]
  IC50: 12.8 µg/mL

## CC[C@@H]([C@H](C)O)n1ncn(-c2ccc(N3CCN(c4ccc(OC[C@@H]5CO[C@@](Cn6cncn6)(c6ccc(F)cc6F)C5)cc4)CC3)cc2)c1=O [POSACONAZOLE]
Leishmania donovani [20]
  MIC: 11.4 to 22.8 µM (≈ 7.99 to 16 µg/mL)
Leishmania amazonensis [21]
  MIC: 11.4 to 22.8 µM (≈ 7.99 to 16 µg/mL)
Leishmania major [22]
  MIC: 11.4 to 22.8 µM (≈ 7.99 to 16 µg/mL)
Leishmania mexicana [23]
  MIC: 11.4 to 22.8 µM (≈ 7.99 to 16 µg/mL)
Leishmania mexicana [24]
  MIC: 11.4 to 22.8 µM (≈ 7.99 to 16 µg/mL)
Leishmania panamensis [25]
  MIC: 11.4 to 22.8 µM (≈ 7.99 to 16 µg/mL)
Leishmania panamensis [26]
  MIC: 11.4 to 22.8 µM (≈ 7.99 to 16 µg/mL)

## C[C@@H](c1ncncc1F)[C@](O)(Cn1cncn1)c1ccc(F)cc1F [VORICONAZOLE]
Leishmania amazonensis [27]
  IC50: 6.1 to 10.4 µM
Leishmania major [28]
  IC50: 6.1 to 10.4 µM
Leishmania donovani [29]
  IC50: 6.1 to 10.4 µM
Leishmania amazonensis [36]
  IC50: 5.84 µM
